Laboratory results published in patent US20090099169A1, “Benzofuran Compounds As EP1 Receptor Antagonists” (GLAXO GROUP LIMITED, priority 2006, published 2009).
Counter-ions that a name gives are not always drawn.

Assays:
human EP3 receptor = molecular target: T1, human EP3 receptor (Homo sapiens, UniProt P43115); assay: human EP3 calcium mobilisation assay; type: cell-based; conditions: CHO-K1 cells, antagonism of PGE2; averages of a number of experiments; read-out: functional pKi value (human EP3 calcium mobilisation assay) (converted)
T1 construct: expressed in transfected cells; host or cells: CHO-K1
T1 sequence (P43115 1-390): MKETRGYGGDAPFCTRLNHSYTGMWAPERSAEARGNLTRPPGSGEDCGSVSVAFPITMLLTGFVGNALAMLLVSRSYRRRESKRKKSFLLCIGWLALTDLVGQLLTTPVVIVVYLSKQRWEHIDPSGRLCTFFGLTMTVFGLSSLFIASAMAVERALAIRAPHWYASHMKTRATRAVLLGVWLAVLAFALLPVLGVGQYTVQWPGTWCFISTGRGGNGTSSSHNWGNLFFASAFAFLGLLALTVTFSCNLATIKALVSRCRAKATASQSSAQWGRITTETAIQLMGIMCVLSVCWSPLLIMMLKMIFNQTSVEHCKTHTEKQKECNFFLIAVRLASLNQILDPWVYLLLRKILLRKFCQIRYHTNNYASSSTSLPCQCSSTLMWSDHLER
Procedure: Briefly, the antagonist properties of compounds are assessed by their ability to inhibit the mobilisation of intracellular calcium ([Ca^2+]i) in response to activation of EP1 or EP3 receptors by the natural agonist hormone prostaglandin E2 (PGE2). Increasing concentrations of antagonist reduce the amount of calcium that a given concentration of PGE2 can mobilise. The net effect is to displace the PGE2 concentration-effect curve to higher concentrations of PGE2. The amount of calcium produced is assessed using a calcium-sensitive fluorescent dye such as Fluo-4, AM and a suitable instrument such as a Fluorimetric Imaging Plate Reader (FLIPR). Increasing amounts of [Ca^2+]i produced by receptor activation increase the amount of fluorescence produced by the dye and give rise to an increasing signal. The signal may be detected using the FLIPR instrument and the data generated may be analysed with suitable curve-fitting software.
The human EP1 or EP3 calcium mobilisation assay (hereafter referred to as ‘the calcium assay’) utilises Chinese hamster ovary-K1 (CHO-K1) cells into which a stable (PCIN; BioTechniques 20 (1996): 102-110) vector containing either EP1 or EP3 cDNA has previously been transfected. Cells are cultured in suitable flasks containing culture medium such as DMEM:F-12 supplemented with 10% v/v foetal calf serum, 2 mM L-glutamine, 0.25 mg/ml geneticin, 100 μM flurbiprofen and 10 μg/ml puromycin.
For assay, cells are harvested using a proprietary reagent that dislodges cells such as Versene. Cells are re-suspended in a suitable quantity of fresh culture media for introduction into a 384-well plate. Following incubation for 24 hours at 37° C. the culture media is replaced with a medium containing Fluo-4 and the detergent pluronic acid, and a further incubation takes place. Concentrations of compounds are then added to the plate in order to construct concentration-effect curves. This may be performed on the FLIPR in order to assess the agonist properties of the compounds. Concentrations of PGE2 are then added to the plate in order to assess the antagonist properties of the compounds.
The data so generated may be analysed by means of a computerised curve-fitting routine. The concentration of compound that elicits a half-maximal inhibition of the calcium mobilisation induced by PGE2 (pIC50) may then be estimated.

human EP1 receptor [1] = molecular target: T2, human EP1 receptor (Homo sapiens, UniProt P34995); assay: human EP1 calcium mobilisation assay; type: cell-based; set-up: expressed in transfected cells; conditions: CHO-K1 cells, antagonism of PGE2; averages of a number of experiments; read-out: functional pKi value (human EP1 calcium mobilisation assay) (converted)
T2 sequence (P34995 1-402): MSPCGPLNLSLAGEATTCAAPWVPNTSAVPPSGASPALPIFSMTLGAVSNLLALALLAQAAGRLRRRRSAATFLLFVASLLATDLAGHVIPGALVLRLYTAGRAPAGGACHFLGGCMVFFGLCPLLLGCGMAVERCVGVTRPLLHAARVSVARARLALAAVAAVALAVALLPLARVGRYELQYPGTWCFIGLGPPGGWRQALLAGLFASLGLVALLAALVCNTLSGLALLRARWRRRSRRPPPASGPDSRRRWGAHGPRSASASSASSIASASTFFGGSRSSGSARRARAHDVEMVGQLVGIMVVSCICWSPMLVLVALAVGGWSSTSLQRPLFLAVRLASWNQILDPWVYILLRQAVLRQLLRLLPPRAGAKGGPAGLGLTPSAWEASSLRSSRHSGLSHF
Procedure, shortened: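 CHO-K1 cells stably transfected with human EP1 or EP3, loaded with Fluo-4 after 24 h culture, treated with compound, then challenged with PGE2. Calcium-driven fluorescence read on FLIPR; pIC50 is half-maximal inhibition of PGE2-induced calcium mobilisation, from curve fitting.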

human EP1 receptor [2] = molecular target: T2, human EP1 receptor; assay: Binding assay for the human prostanoid EP1 receptor (radioligand competition); set-up: expressed in transfected cells; host or cells: CHO-K1 (membranes); conditions: CHO-K1 membranes; [3H]-PGE2 for Examples 1-17, 19, 33, 34, 60 and 61, 3-{2-[5-Bromo-2-(2,4-difluorobenzyloxy)-phenyl]-5-methyl-pyrrol-1-yl}-6-[3H3-methoxy]methoxy-benzoic acid for the remaining; averages of a number of experiments; read-out: pIC50 value (binding assay for the human prostanoid EP1 receptor) (converted)
Procedure: Compound potencies are determined using a radioligand binding assay. In this assay compound potencies are determined from their ability to compete with tritiated prostaglandin E2 ([^3H]-PGE2) for binding to the human EP1 receptor.
This assay utilises Chinese hamster ovary-K1 (CHO-K1) cells into which a stable vector containing the EP1 cDNA has previously been transfected. Cells are cultured in suitable flasks containing culture medium such as DMEM:F-12 supplemented with 10% v/v foetal calf serum, 2 mM L-glutamine, 0.25 mg/ml geneticin, 10 μg/ml puromycin and 10 μM indomethacin.
Cells are detached from the culture flasks by incubation in calcium and magnesium free phosphate buffered saline containing 1 mM disodium ethylenediaminetetraacetic acid (Na2EDTA) and […] indomethacin for 5 min. The cells are isolated by centrifugation at 250×g for 5mins and suspended in an ice cold buffer such as 50 mM Tris, 1 mM Na2EDTA, 140 mM NaCl, 10 μM indomethacin (pH 7.4). The cells are homogenised using a Polytron tissue disrupter (2×10 s burst at full setting), centrifuged at 48,000×g for 20mins and the pellet containing the membrane fraction is washed (optional) three times by suspension and centrifugation at 48,000×g for 20mins. The final membrane pellet is suspended in an assay buffer such as 10 mM 2-[N-morpholino]ethanesulphonic acid, 1 mM Na2EDTA, 10 mM MgCl2 (pH 6). Aliquots are frozen at −80° C. until required.
(§1) For the binding assay the cell membranes, competing compounds and [^3H]-PGE2 (3 nM final assay concentration) are incubated in a final volume of 100 μl for 30 min at 30° C. All reagents are prepared in assay buffer. Reactions are terminated by rapid vacuum filtration over GF/B filters using a Brandell cell harvester. The filters are washed with ice cold assay buffer, dried and the radioactivity retained on the filters is measured by liquid scintillation counting in Packard TopCount scintillation counter.
The data are analysed using non linear curve fitting techniques to determine the concentration of compound producing 50% inhibition of specific binding (IC50).
Alternatively a similar assay may be carried out using 3-{2-[5-Bromo-2-(2,4-difluoro-benzyloxy)-phenyl]-5-methyl-pyrrol-1-yl}-6-[^3H3-methoxy]methoxy-benzoic acid instead of [^3H]-PGE2.
For the binding assay using 3-{2-[5-Bromo-2-(2,4-difluoro-benzyloxy)-phenyl]-5-methyl-pyrrol-1-yl}-6-[^3H3-methoxy]methoxy-benzoic acid instead of [^3H]-PGE2 the assay is carried out using a similar procedure to that described above using [^3H]-PGE2 with the following changes:
as §1, with “The” for “For the binding assay the”, “3-{2-[5-Bromo-2-(2,4-difluoro-benzyloxy)-phenyl]-5-methyl-pyrrol-1-yl}-6-[^3H3-methoxy]methoxy-benzoic acid (0.2” for “[^3H]-PGE2 (3”, “400” for “100”, “45” for “30”, “37°” for “30°”, “water at ambient temperature,” for “ice cold assay buffer,”
The preparation of 3-{2-[5-Bromo-2-(2,4-difluoro-benzyloxy)-phenyl]-5-methyl-pyrrol-1-yl}-6-methoxy-benzoic acid is described in WO 03/101959 and in Hall et al, Biorg. Med. Chem. Lett., 2007, 17, 916-920. The tritiated version may be prepared via conventional routes, e.g. from 3-{2-[5-bromo-2-(2,4-difluoro-benzyloxy)-phenyl]-5-methyl-pyrrol-1-yl}-6-hydroxy-benzoic acid or 3-{2-[5-bromo-2-(2,4-difluoro-benzyloxy)-phenyl]-5-methyl-pyrrol-1-yl}-6-hydroxy-benzoic acid methyl ester.

Structure (SMILES)	Ki (human EP3 receptor) [nM]	Ki (human EP1 receptor [1]) [nM]	IC50 (human EP1 receptor [2]) [nM]
Cc1cc(C(=O)Nc2ccc(CN3CCCC3)cc2)nn1Cc1cc(Br)cc2cc(C(C)C)oc12 [Example 51, 1-{[5-Bromo-2-(1-methylethyl)-1-benzofuran-7-yl]methyl}-5-methyl-N-[4-(1-pyrrolidinylmethyl)phenyl]-1H-pyrazole-3-carboxamidehydrochloride]	501 to 10000	≤ 316	≤ 100
CC(C)c1cc2cc(Cl)cc(Cc3ccc(C(=O)Nc4ccc(CN5CCCC5)cc4)o3)c2o1 [Example 53, 5-{[5-Chloro-2-(1-methylethyl)-1-benzofuran-7-yl]methyl}-N-[4-(1-pyrrolidinylmethyl)phenyl]-2-furancarboxamide]	501 to 10000	≤ 316	≤ 100
CC(C)c1cc2cc(Cl)cc(Cc3ccc(C(=O)Nc4ccc(CN5CCC(O)CC5)cc4)o3)c2o1 [Example 55, 5-{[5-Chloro-2-(1-methylethyl)-1-benzofuran-7-yl]methyl}-N-{4-[(4-hydroxy-1-piperidinyl)methyl]phenyl}-2-furancarboxamide Hydrochloride]	501 to 10000	≤ 316	≤ 100
Cc1cc(C(=O)Nc2ccc(CO)cc2)nn1Cc1cc(Br)cc2cc(C(C)C)oc12 [Example 71]	501 to 10000	≤ 316	≤ 100
CC(C)c1cc2cc(Cl)cc(Cc3ccc(C(=O)Nc4ccc(CO)cc4)o3)c2o1 [Example 72, 5-{[5-Chloro-2-(1-methylethyl)-1-benzofuran-7-yl]methyl}-N-[4-(hydroxymethyl)phenyl]-2-furancarboxamide]	501 to 10000	≤ 316	≤ 100
